Values joined by “and” are separate entries in the source; they are usually repeats but may differ in a detail not shown here. Equal values may be shown once.
Assays:
[1] = Human liver microsome stability (Assays #1-#4); format: in vitro ADME; conditions: substrate 1 μM, 37° C.; for % Left @ 30 min / half-life at 1 μM: Assay #1; for % Left @ 30 min / % Left Assay 3 @ 0 min / % Left Assay 3 @ 5 min / % Left Assay 3 @ 10 min / % Left Assay 3 @ 15 min / % Left Assay 3 @ 30 min / % Left Assay 3 @ 60 min / half-life at 1 μM: protein 0.1 mg/mL; for % Left (+NADPH) @ 0 min / % Left (+NADPH) @ 5 min / % Left (+NADPH) @ 10 min / % Left (+NADPH) @ 15 min / % Left (+NADPH) @ 30 min / % Left (+NADPH) @ 60 min / % Left (−NADPH) @ 0 min / % Left (−NADPH) @ 60 min: Assay #4, protein 1.0 mg/mL; for % Left (−NADPH) @ 0 min / % Left (−NADPH) @ 60 min: −NADPH control; for half-life at 1 μM: human, liver microsomes
Description: The results for Examples 1 and 3 were t112=87 and 32 minutes with 78% and 60% remaining after 30 minutes, respectively, compared to shorter half-lives and lesser amounts left for Examples 2 and 4-6 (see Note 6 for conditions).
Under similar in vitro human liver microsome preparation stability assay conditions at 37° C. for 30 or 60 minutes in a separate head-to-head experiments (Assay #2 and #3) (see Note 6 for conditions) with Examples 1 and 3 and the comparator Compound #290 from U.S. Pat. No. 5,591,737, the amounts left after the 30 minute incubation (with […] microsome protein vs 0.1 mg/mL for Assay #3) were 67, 99 and 79% and for the 60 minute incubation were 94, 73 and 77%, respectively. Similarly, in a third repeat assay (Assay #4 with—NADPH controls) (see Note 6 for conditions), 90 and 72% were remaining for Example 1 and the comparator compound, respectively. […]
Note 6: Human Liver Microsome Assay # 1-3 conditions. • Assay experiment #1: Substrate concentration=1 μM; Protein concentration=0.1 mg/mL; incubation time=30 minutes at 37° C. • Assay experiment #2: Substrate concentration=1 μM; Protein concentration 0.1 mg/mL; incubation time=30 minutes at 37° C. • Assay experiment #3: Substrate concentration=1 μM; Protein concentration=0.1 mg/mL; incubation time=60 minutes at 37° C. • Assay experiment #4: Substrate concentration=1 μM; Protein concentration=1.0 mg/mL; incubation time=60 minutes at 37° C.

[2] = Liver microsome stability in 4 species: rat; format: in vitro ADME; conditions: substrate 0.5 uM, microsome 0.25 mg/mL
Description: In a separate experiment as exemplified in Table 3, the stability of the current Example 1 and the comparator Compound #290 in incubations with microsome preparations from 4 different species were also determined (Note 5).
X. S. Tong, et. al., J. of Chromatography, 2006, 833, 165.

CYP-P450 3A4 = target: T1, CYP-P450 3A4 (Homo sapiens, UniProt P08684); test: CYP-P450 reversible inhibition, 3A4; format: in vitro ADME; conditions: human liver microsomes or recombinant P450 microsomes; fluorescent probe
T1 construct: host or cells: human liver microsomes or recombinant P450 microsomes
T1 sequence (P08684 whole entry): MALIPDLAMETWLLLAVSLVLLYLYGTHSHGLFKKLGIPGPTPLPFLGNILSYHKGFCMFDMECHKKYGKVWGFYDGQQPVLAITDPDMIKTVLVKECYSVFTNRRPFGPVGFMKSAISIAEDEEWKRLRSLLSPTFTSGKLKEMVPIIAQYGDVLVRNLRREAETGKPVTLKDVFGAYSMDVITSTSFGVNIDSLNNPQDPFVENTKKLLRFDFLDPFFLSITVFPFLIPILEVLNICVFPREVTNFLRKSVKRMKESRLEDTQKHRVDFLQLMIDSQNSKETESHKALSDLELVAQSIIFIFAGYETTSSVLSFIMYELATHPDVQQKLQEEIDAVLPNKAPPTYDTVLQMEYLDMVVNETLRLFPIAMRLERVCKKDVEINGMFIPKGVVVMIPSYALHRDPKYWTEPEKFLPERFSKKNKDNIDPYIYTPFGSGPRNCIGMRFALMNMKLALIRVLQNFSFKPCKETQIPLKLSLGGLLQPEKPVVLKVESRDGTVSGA
Description: (§1) This assay measured the reversible inhibition of the test compounds against three cytochrome P450 isozymes (CYP-P450 3A4, 2C9 and 2D6) in an automated screening formate. […] Cumene hydroperoxide, NADPH or NADPH regenerating systems can be used as electron donors for the P450 catalytic cycle. Control incubations containing no inhibitor or no fluorescent probe were performed to evaluate the 100% and 0% activities, respectively. The activity of P450 enzyme was evaluated in the presence of 0.137, 0.273, 0.547, 1.094, 2.188, 4.375, 8.750, 17.5, 35.0 and 70.0 μM concentrations of the test compounds. Inhibition curves were generated and IC50 values were calculated for each tested compound using standard techniques.

CYP-P450 2D6 = target: T2, CYP-P450 2D6 (Homo sapiens, UniProt P10635); test: CYP-P450 reversible inhibition, 2D6; format: in vitro ADME; conditions: human liver microsomes or recombinant P450 microsomes; fluorescent probe
T2 construct: host or cells: human liver microsomes or recombinant P450 microsomes
T2 sequence (P10635 whole entry): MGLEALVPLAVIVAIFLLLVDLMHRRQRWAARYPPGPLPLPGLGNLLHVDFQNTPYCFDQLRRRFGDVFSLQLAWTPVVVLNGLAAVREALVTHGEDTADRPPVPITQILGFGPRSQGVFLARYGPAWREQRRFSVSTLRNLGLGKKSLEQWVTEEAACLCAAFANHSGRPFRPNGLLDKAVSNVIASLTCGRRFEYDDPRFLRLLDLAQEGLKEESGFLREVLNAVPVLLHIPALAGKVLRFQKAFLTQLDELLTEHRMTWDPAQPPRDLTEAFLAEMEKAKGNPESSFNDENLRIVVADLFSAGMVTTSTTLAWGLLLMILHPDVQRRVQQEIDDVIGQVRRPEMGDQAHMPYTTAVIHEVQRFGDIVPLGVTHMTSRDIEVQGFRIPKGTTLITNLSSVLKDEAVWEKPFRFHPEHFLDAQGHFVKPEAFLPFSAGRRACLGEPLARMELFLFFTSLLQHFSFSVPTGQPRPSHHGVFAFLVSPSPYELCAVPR
Description: as §1

human CYP-3A4 enzyme = test: P450 CYP-3A4 induction; format: in vitro ADME; conditions: test compound 10 μM vs Rifampicin 10 μM (defined as 100%)
Description: This assay measured the in vitro induction of the human CYP-3A4 enzyme in the presence of 0.37, 1.11, 3.33, 10 and 30 μM test compound in an automated formate. The results are expressed as the relative percent induction measured for test compound at the 10 μM concentration compared to the known inducer standard Rifampicin at 10 μM (defined as 100%). (See Durocher, et. al., Anal. Biochem. 2000, 284, 316 for details of the assay).

CYP3A4 = CYP3A4 (Homo sapiens, UniProt P08684)
CYP3A4, sequence (P08684 whole entry): as the sequence (P08684 whole entry) above
Description: This assay measured the pre-incubation time-dependent inhibition of potential CYP-3A4 inhibitors in human liver microsomes using the CYP-3A4 mediated testosterone 6-beta-hydroxylation formate in the presence of test compounds in a semi-automated screening using LC-MS/MS detection. Test compounds are pre-incubated at 37° C. with human liver microsomes (2.5 mg/mL protein) and a NADPH regenerating system for 10, 20, 30 and 40 minutes prior to a ten-fold dilution with a 250 μM solution of testosterone. The diluted reaction is then incubated for 15 minutes at 37° C. The concentration of 6-β-hydroxytestosterone metabolite formed is measured by LC-MS/MS using validated analytical methods. The percent activity remaining is calculated by comparing the amount of marker metabolite formed in the presence of inhibitor compared to no inhibitor control samples at corresponding time points. No inhibitor control samples represent the maximum amount of 6-β-hydroxytestosterone formed under these assay conditions.

Compound | % Left @ 30 min [1] | % Left Assay 2 @ 0 min [1] | % Left Assay 2 @ 2.5 min [1] | % Left Assay 2 @ 5 min [1] | % Left Assay 2 @ 10 min [1] | % Left Assay 2 @ 15 min [1] | % Left Assay 2 @ 30 min [1] | % Left Assay 3 @ 0 min [1] | % Left Assay 3 @ 5 min [1] | % Left Assay 3 @ 10 min [1] | % Left Assay 3 @ 15 min [1] | % Left Assay 3 @ 30 min [1] | % Left Assay 3 @ 60 min [1] | % Left (+NADPH) @ 0 min [1] | % Left (+NADPH) @ 5 min [1] | % Left (+NADPH) @ 10 min [1] | IC50 (CYP-P450 3A4) | IC50 (CYP-P450 2D6) | CYP-3A4 Induction % of Rifampicin response @ 10 μM (human CYP-3A4 enzyme) | P450 CYP-3A4 Time-Dependent Inhibition rate @ 10 μM (#1) (CYP3A4) | other results
CCC[C@@H](NC(=O)N1C(=O)C(CC)(CC)[C@@H]1Oc1ccc(C(=O)N(CC)CCN(C)C)cc1)c1ccc(OC(F)(F)F)cc1 [Example 1, 2-(S)-[4-(((2-(Dimethylamino)ethyl)ethylamino)carbonyl)phenoxy]-3,3-diethyl-N-[1-(R)-(4-(trifluoromethoxy)phenyl)butyl]-4-oxo-1-azetidinecarboxamide] | 78% | 100% | 78% | 78% | 73% | 70% | 67% and 67 +/− 2% | 100% | 101% | 79% | 90% | 100% | 94% and 94 +/− 10% | 100% | 104% | 99% | 46 µM | 37 µM | 5% | 0.005 min⁻¹ | % Left (+NADPH) @ 15 min [1]: 96%; % Left (+NADPH) @ 30 min [1]: 91%; % Left (+NADPH) @ 60 min [1]: 90% and 90 +/− 4%; % Left (−NADPH) @ 0 min [1]: 87 +/− 21%; % Left (−NADPH) @ 60 min [1]: 99 +/− 2%; half-life at 1 μM [1]: 87 min; % Left @ 30 min [2]: 96%; % Left @ 60 min [2]: 94%; P450 CYP-3A4 Time-Dependent Inhibition rate @ 10 μM (#2) (CYP3A4): 0.008 min⁻¹; P450 CYP-3A4 Time-Dependent Inhibition rate @ 50 μM (CYP3A4): 0.018 min⁻¹
CCC[C@@H](NC(=O)N1C(=O)C(CC)(CC)[C@@H]1Oc1ccc(C(=O)N(C)CCN(C)C)cc1)c1ccc(OC)cc1 [Compound #290, reference compound] | – | 100% | 99% | 95% | 89% | 82% | 79% and 79 +/− 6% | 100% | 90% | 88% | 85% | 83% | 77% and 77 +/− 4% | 100% | 92% | 89% | 62 µM | 39 µM | 6% | 0.017 min⁻¹ | % Left (+NADPH) @ 15 min [1]: 84%; % Left (+NADPH) @ 30 min [1]: 78%; % Left (+NADPH) @ 60 min [1]: 72% and 72 +/− 0%; % Left (−NADPH) @ 0 min [1]: 89 +/− 5%; % Left (−NADPH) @ 60 min [1]: 83 +/− 1%; % Left @ 30 min [2]: 99%; % Left @ 60 min [2]: 93%; P450 CYP-3A4 Time-Dependent Inhibition rate @ 10 μM (#2) (CYP3A4): 0.008 min⁻¹; P450 CYP-3A4 Time-Dependent Inhibition rate @ 50 μM (CYP3A4): 0.018 min⁻¹
CCC[C@@H](NC(=O)N1C(=O)C(CC)(CC)[C@@H]1Oc1ccc(C(=O)N(CC)CCN(C)C)cc1)c1ccc(C(F)(F)F)cc1 [Example 3, 2-(S)-[4-(((2-(Dimethylamino)ethyl)ethylamino)carbonyl)phenoxy]-3,3-diethyl-N-[1-(R)-(4-(trifluoromethyl)phenyl)butyl]-4-oxo-1-azetidinecarboxamide] | 60% | 100% | 107% | 85% | 82% | 82% | 99% and 79 +/− 7% | 100% | 86% | 81% | 75% | 75% | 73% and 73 +/− 0% | – | – | – | 39 µM | 41 µM | 0% | 0.014 min⁻¹ | half-life at 1 μM [1]: 32 min

Reference: patent US20100216761A1, “NOVEL AZETIDINONES USEFUL AS INHIBITORS OF ELASTASE” (priority 2007, published 2010)
